Data on 32 molecules can be found in patent US6348487B1, “2-phenyl benzimidazole derivatives as MCP-1 antagonists” (Millennium Pharmaceuticals, Inc., priority 1996, dated 2002).

Where “and” joins values, the source holds several entries; their conditions need not be identical. Identical values can stand only once.

Usually melting point stands for the temperature, or range, at which the solid turns liquid. By IC50 is commonly meant the point on the concentration scale where inhibition reaches its midpoint. Read a high IC50 as a need for much substance.

System in the first data set: not given
Assay: not given
Details: not given
As to `COc1ccc2nc(-c3ccc(N(C)CCN4CCCCC4)cc3)[nH]c2c1.Cl.Cl`, the melting point was found to be 273 °C. Same read-out and setting: with `CN(CCN1CCCCC1)c1ccc(-c2nc3ccc(Cl)cc3[nH]2)cc1` [Example 4, [4-[6-Chloro-1H-benzoimidazol-2-yl)-phenyl]-methyl-(2-piperidin-1-yl-ethyl)-amine] the figure was 196 °C. Still for that read-out and setting: next, `CN(CCN1CCCCC1)c1ccc(-c2nc3cc(Cl)c(F)cc3[nH]2)cc1` [Example 5, [4-(5-Chloro-6-fluoro-1H-benzoimidazol-2-yl)-phenyl]-methyl-(2-piperidin-1-yl-ethyl)-amine]: 167 to 168 °C; `Cc1ccc2nc(-c3ccc(N(C)CCN4CCCCC4)cc3)[nH]c2c1` [Example 6, Methyl-[4-(6-methyl-1H-benzoimidazol-2-yl)-phenyl]-(2-piperidin-1-yl-ethyl)-amine]: 165 °C; `Cc1cc2nc(-c3ccc(N(C)CCN4CCCCC4)cc3)[nH]c2cc1C` [Example 7, [4-(5,6-Dimethyl-1H-benzoimidazol-2-yl)-phenyl]-methyl-(2-piperidin-1-yl-ethyl)-amine]: 194 to 196 °C. On the same count and under the same terms, next, `CN(CCN1CCCCC1)c1ccc(-c2nc3ccc(Cl)c(Cl)c3[nH]2)cc1` [Example 8, [4-(6,7-Dichloro-1H-benzoimidazol-2-yl)-phenyl]-methyl-(2-piperidin-1-yl-ethyl)-amine]: 164 °C. `CN(CCN1CCCCC1)c1ccc(C2=Nc3ccc(Cl)cc3C2)cc1` [Example 10, [4-(5-Chloro-3H-indol-2-yl)-phenyl]-methyl-(2-piperidin-1-yl-ethyl)-amine]: the melting point is 192 °C.

For another data set, the system named is T lymphocyte blast cells (CD3-Blasts). Description: CD3-Blast Chemotaxis Assay (transendothelial migration to MCP-1). It is filed as cell-based, human. Particulars: 10 μM compound; MCP-1 about 10 nM; ECV304 endothelial coated Transwells. The text has this: Recombinant human MCP-1 was obtained from Peprotech (Rockey Hill, N.J.). T lymphocyte blast cells (CD3-Blasts) were generated by standard protocols (Coligan, J. E., A. M. Kruisbeek, D. H. Macgulies, E. M. Shevach, and W. Strober, editors. 1992. Current Protocols in Immunology. John Wiley and Sons, New York 7.1.2, 7.10.1-7.10. 10). Briefly, human peripheral blood mononuclear cells (PBMC) were isolated from heparinized venous blood by Percoll density gradient centrifugation (d=1.088) at room temperature. RBCs were removed by hypotonic lysis or dextran sedimentation. Blast cells were generated by incubating 2×10^6 PBMC in 24-well tissue culture plates that were coated with 2.5 μg of an anti-CD3 monoclonal antibody (identified as TR66, a gift from Dr. A. Lanzivecchia; similar monoclonal antibody is HIT3a, from Parmingen #30111A) at 37° C. for 48 to 72 hours, and then transferring 12 wells to T25 or T75 flasks with RPMI (Roswell Park Memorial Institute 1640, a growth cell medium available from Gibco/RBL, Inc., New York)+10% FCS (fetal calf serum)+50 units/ml IL-2. The cells are expanded and cultured for up to 3 weeks. CD3-Blast chemotaxis was assessed no sooner than 3 to 4 days after transfer to the IL-2 containing medium using a modification of a transendothelial migration assay (Carr. M. W., S. J. Roth, B. Luther, S. S. Rose, and T. A. Springer. 1994. Monocyte chemoattractant protein 1 acts as a T-lymphocyte chemoattractant. Proc. Natl. Acad. Sci. USA 91:3652-6). The endothelial cells used for this assay were the endothelial cell line ECV304. (ECV304 was from the European Collection of Animal Cell Cultures, Porton Downs, UK, assession #92091712). Endothelial cells were cultured on 6.5 mm diameter Transwell culture inserts (Costar) with a […] pore size. […] Background migration was determined by counting cells that migrated in the absence of MCP-1 in the lower chamber. […] The percent inhibition by compounds of directed migration was determined by the following formula: [drawing 32] […]
For “N-[4-(5,6-dichloro-1H-benzimidazol-2-yl)-phenyl]-N-(2-diethylaminoethyl)-N-methyl, N-diethyl-ethane-1,2-diamine [Example 3]”, the “% Inhibition of Chemotaxis at 10 μM” value is 95% and 102%.

Another data set has as its target T1, MCP-1 receptor (Homo sapiens, UniProt P41597).
T1 construct: host or cells: THP-1 (human monocytic cell line), membrane preparation
T1 sequence (P41597 1-360 isoform P41597-2): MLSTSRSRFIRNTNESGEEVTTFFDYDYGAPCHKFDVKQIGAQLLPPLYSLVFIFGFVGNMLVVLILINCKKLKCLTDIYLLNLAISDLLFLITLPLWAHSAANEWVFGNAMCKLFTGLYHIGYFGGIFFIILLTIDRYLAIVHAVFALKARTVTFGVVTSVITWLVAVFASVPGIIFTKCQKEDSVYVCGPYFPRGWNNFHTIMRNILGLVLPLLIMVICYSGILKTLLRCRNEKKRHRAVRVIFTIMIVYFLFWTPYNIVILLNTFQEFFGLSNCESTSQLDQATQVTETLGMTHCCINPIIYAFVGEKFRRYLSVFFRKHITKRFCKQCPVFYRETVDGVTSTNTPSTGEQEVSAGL
The data set can be described thus: MCP-1 Receptor Binding Assay (I125-labeled MCP-1, THP-1 cell membranes). The following applies: THP-1 membranes, 0.2 nM I125-labeled MCP-1. The procedure:
Membranes used in the MCP-1 binding assay were prepared from THP-1 cells (human monocytic cell line source—American Type Culture Collection, Tumor Immunology Bank #202, Rockville, Md., accession no. ATCC TIB 202). Cells were harvested by centrifugation and washed twice in ice-cold PBS (phosphate-buffered saline) and the cell pellet was frozen at −80° C. in some cases. Cells were resuspended in ice-cold lysis buffer 5 mM HEPES (2-(4N-[2-hydroxyethyl]piperazin-1-yl)-N′-(2-ethanesulfonic acid), pH 7.5, 2 mM EDTA (ethylenediaminetetraacetic acid), 5 μg/mL each leupeptin, aprotinin, chymostatin (protease inhibitors), and 100 μg/mL PMSF (phenylmethane sulfonyl fluoride—also a protease inhibitor)) at a concentration of 5×10^7 cells/mL. The cell suspension was dounced 10-15 times using the B pestle (small pestle of tissue grinder—clearance is 0.07 mm; source—Fisher Scientific) on ice. Nuclei and debris were removed by centrifugation at 500-1000×g for 10 minutes at 4° C. The supernatant was transferred to a fresh tube and centrifuged at 25,000×g for 30 minutes at 4° C. The supernatant was aspirated and the pellet was resuspended in freezing buffer (10 mM HEPES, pH 7.5, 300 mM sucrose, 1 μg/mL each leupeptin, aprotinin, chymostatin, and 10 μg/mL PMSF) using a minihomogenizer until all clumps were resolved. Membranes were aliquoted and frozen at minus 70-85° C. until needed. Typical binding assays used 10-20 μg/well of total membrane protein as determined with a standard protein assay (e.g. Bradford protein assay, BioRad, Richmond, Calif.).
For binding, 10-20 μg of total membrane protein were included in the binding reaction along with 0.2 nM I^125-labeled MCP-1 (Amersham, Arlington Heights, Ill.) with or without unlabeled competitor MCP-1 (Peprotech, Rocky Hill, N.J.) (at 500 nM). Binding reactions were performed in a final volume of 100 μl in a binding buffer containing 10 mM HEPES, pH 7.2, 1 mM CaCl2, 5 mM MgCl2, 0.5% BSA (bovine serum albumin). After 30-60 minutes at room temperature, the binding reactions were filtered through GF/C filters (Whatman glass fiber filters, Type C) or GF/B unifilter plates (Packard) which had been pre-soaked with 0.3% polyethyleneimine and washed twice with binding buffer containing 0.5 M NaCl. Filters were dried and counted in a Beta-Plate scintillation counter using standard scintillation fluid. Final concentration of compound in the binding assay ranged from 0.05-100 μM. Compounds were dissolved in DMSO (dimethyl sulfoxide). Final concentrations of DMSO in the binding were kept constant at 0.5%.
IC50s were calculated using a non-linear 3-parameter logistic curve fit. IC50 means the concentration at which 50% inhibition is achieved. Negative controls contained the same amount of DMSO vehicle as used in wells containing compound. Positive control contained 250-500 nM cold competitor MCP-1 in DMSO vehicle. Non-specific binding (the level of bound ^125I-labeled MCP-1 in the presence of […] unlabeled MCP-1) was subtracted from all data prior to analysis.
In turn, `CN(CCN1CCCCC1)c1ccc(-c2nc3ccccc3[nH]2)cc1` registered an IC50 of 10.9 µM. The same measure, in the same setting: next, `CN(CCN1CCCCC1)c1ccc(-c2nc3ccc(C(F)(F)F)cc3[nH]2)cc1`: 15.5 µM; `CN(CCN1CCCCC1)c1ccc(-c2nc3ccc(C(C)(C)C)cc3[nH]2)cc1`: 3.1 µM. On the same count and under the same terms, with `CN(CCN1CCCCC1)c1ccc(-c2nc3ccc(F)cc3[nH]2)cc1` the figure was 8.6 µM; with `CN(CCN1CCCCC1)c1ccc(-c2nc3cc4ccccc4cc3[nH]2)cc1`, 12.1 µM.

For `CN(CCN1CCCCC1)c1ccc(-c2nc3cc4c(cc3[nH]2)Cc2ccccc2-4)cc1`, the IC50 was found to be 20.7 µM.

With `CCCCc1ccc2nc(-c3ccc(N(C)CCN4CCCCC4)cc3)[nH]c2c1`, the IC50 was 11.5 µM. Still for that read-out and setting: with `CN(CCN1CCCCC1)c1ccc(-c2nc3ccc(-c4ccccc4)cc3[nH]2)cc1` the figure was 15.1 µM; with `CN(CCN1CCCCC1)c1ccc(-c2nc3cc(Sc4ccc(Cl)c(Cl)c4)ccc3[nH]2)cc1`, 5.1 µM.

Molecule `CN(CCN1CCCCC1)c1ccc(-c2nc3ccc(C(=O)c4ccccc4)cc3[nH]2)cc1` came in with an IC50 of 11.3 µM.

For `CN(CCN1CCCCC1)c1ccc(-c2nc3ccc(OCc4ccccc4)cc3[nH]2)cc1`, the IC50 came to 15.4 µM. Same read-out and setting: next, `c1ccc(-c2ccc3nc(-c4ccc(NCCN5CCCCC5)cc4)[nH]c3c2)cc1`: 11.9 µM. Same read-out and setting: with `CN(CCN1CCCCC1)c1ccc(-c2nc3ccc(Oc4ccc(Cl)c(Cl)c4)cc3[nH]2)cc1` the figure was 6.4 µM; with `CN(CCN1CCCCC1)Cc1ccc(-c2nc3cc(Cl)c(Cl)cc3[nH]2)cc1`, 3.2 µM. The same measure, in the same setting: with `CN(CCN1CCCCC1)c1ccc(-c2nc3ccc(NCCCCCc4ccccc4)cc3[nH]2)cc1` the figure was 6.7 µM; with `CN(CCN1CCCCC1)c1ccc(-c2cc3cc(Cl)ccc3[nH]2)cc1`, 9.9 µM; with `CN(CCN1CCCCC1)c1ccc(-c2nc3ccc(Cc4ccccc4)cc3[nH]2)cc1`, 4.3 µM. As for `CCN(CC)CCN(C)c1ccc(-c2nc3cc(Cl)c(Cl)cc3[nH]2)cc1`, the IC50 amounted to 6.8 µM. Still for that read-out and setting: next, `CCN(CC)CCN(CCN(CC)CC)c1ccc(-c2nc3cc(Cl)c(Cl)cc3[nH]2)cc1` [drawing 8]: 11.1 µM; `CN(CCN1CCCCC1)c1ccc(-c2nc3cc(Cl)c(Cl)cc3[nH]2)cc1` [drawing 9]: 13.4 µM. Same read-out and setting: with `CN(CCN1CCCCC1)c1ccc(-c2nc3ccc(Cl)cc3[nH]2)cc1` [drawing 11] the figure was 5.9 µM. On the same count and under the same terms, next, `CN(CCN1CCCCC1)c1ccc(-c2nc3cc(Cl)c(F)cc3[nH]2)cc1` [drawing 12]: 9.6 µM; `Cc1ccc2nc(-c3ccc(N(C)CCN4CCCCC4)cc3)[nH]c2c1` [drawing 13]: 8.7 µM; `Cc1cc2nc(-c3ccc(N(C)CCN4CCCCC4)cc3)[nH]c2cc1C` [drawing 14]: 6.3 µM.
